# Legend:
# [1] = Caco-2 permeability assay; assay type: in vitro ADME; conditions: human
# [2] = test system: PC-3 prostate cancer cells; assay: Cytotoxicity in prostate cancer cells; assay type: cell-based, human
# [3] = test system: STAT3 (total and pY705); assay: Western blot, STAT3 signaling in MDA-MB-231 cells; assay type: cell-based, human; conditions: at 10-fold of the IC50
# [4] = test system: equivalent immunodeficient mice; assay: Orthotopic tumor model in immunodeficient mice, survival
# [5] = test system: D425 primary medulloblastoma (MDB) cells; assay: Cytotoxicity assay in medulloblastoma cells; assay type: cell-based, human
# [6] = target: HDAC4 (Homo sapiens, UniProt P56524); assay: HDAC inhibition, EMSA at fixed concentration; assay type: biochemical
# [7] = target: T1, HDAC6 (Homo sapiens, UniProt Q9UBN7); assay: HDAC inhibition, electrophoretic mobility shift assay; assay type: biochemical; conditions: EMSA, n = 2
# T1 sequence (Q9UBN7 1-1215): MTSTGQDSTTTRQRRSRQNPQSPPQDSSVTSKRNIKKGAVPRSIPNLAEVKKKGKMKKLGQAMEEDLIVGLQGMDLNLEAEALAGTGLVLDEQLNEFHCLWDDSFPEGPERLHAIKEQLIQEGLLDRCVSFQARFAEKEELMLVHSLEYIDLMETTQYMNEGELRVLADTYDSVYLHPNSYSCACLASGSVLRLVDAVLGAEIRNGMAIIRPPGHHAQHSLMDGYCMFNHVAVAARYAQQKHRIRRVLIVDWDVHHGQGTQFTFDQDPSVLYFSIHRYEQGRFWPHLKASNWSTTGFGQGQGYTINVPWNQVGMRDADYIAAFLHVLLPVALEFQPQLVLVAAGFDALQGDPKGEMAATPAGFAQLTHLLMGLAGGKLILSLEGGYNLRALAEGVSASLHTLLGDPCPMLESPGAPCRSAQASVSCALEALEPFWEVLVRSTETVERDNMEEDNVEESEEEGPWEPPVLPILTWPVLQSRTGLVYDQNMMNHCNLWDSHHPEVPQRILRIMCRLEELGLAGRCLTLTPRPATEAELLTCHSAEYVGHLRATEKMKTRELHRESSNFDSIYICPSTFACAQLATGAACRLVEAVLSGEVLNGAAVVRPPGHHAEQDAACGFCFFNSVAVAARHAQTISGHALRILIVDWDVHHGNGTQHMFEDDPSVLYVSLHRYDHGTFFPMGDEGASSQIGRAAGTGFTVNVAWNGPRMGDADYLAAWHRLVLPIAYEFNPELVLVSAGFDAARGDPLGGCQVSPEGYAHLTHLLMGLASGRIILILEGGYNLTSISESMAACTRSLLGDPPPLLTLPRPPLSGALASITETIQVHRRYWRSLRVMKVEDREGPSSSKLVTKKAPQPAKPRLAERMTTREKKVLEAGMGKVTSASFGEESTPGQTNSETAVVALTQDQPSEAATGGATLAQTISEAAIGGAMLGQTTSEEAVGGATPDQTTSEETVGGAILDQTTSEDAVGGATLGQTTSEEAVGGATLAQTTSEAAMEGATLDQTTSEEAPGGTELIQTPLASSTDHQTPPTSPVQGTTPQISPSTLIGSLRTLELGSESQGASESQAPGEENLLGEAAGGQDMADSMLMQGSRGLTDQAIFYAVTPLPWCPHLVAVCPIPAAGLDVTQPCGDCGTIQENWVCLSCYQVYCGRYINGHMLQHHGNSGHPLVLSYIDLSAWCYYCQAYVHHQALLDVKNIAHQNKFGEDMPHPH
# [8] = test system: brain tumor stem cell (BTSC) glioblastoma lines; assay: Cytotoxicity assay in GBM BTSCs; assay type: cell-based, human; conditions: multiple BTSC glioblastoma lines
# [9] = test system: MRC-9 lung cells (noncancerous); assay: Cytotoxicity assay; assay type: cell-based, human
# [10] = test system: MV4–11 AML cells; assay: Cytotoxicity assay; assay type: cell-based; conditions: Homo sapiens, MV4-11, read-out: IC50 (cytotoxicity)
# [11] = target: T2, HDAC11 (Homo sapiens, UniProt Q96DB2); assay: HDAC inhibition, electrophoretic mobility shift assay; assay type: biochemical; conditions: EMSA, n = 2
# T2 sequence (Q96DB2 1-347): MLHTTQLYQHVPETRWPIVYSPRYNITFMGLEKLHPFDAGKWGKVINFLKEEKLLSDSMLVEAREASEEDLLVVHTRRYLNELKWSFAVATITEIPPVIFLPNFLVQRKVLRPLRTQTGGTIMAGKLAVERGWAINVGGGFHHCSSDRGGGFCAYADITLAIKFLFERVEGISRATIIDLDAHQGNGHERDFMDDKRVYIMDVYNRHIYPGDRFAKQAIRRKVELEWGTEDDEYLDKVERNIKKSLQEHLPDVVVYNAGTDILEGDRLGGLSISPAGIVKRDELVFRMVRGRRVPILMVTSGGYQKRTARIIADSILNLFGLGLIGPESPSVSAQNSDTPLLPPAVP
# [12] = Glutathione stability assay using 19F NMR; assay type: physicochemical; conditions: 100-fold excess glutathione, after 16 h
# [13] = test system: NSG mice; assay: Toxicity study; assay type: in vivo
# [14] = target: T3, HDAC8 (Homo sapiens, UniProt Q9BY41); assay: HDAC inhibition, electrophoretic mobility shift assay; assay type: biochemical
# T3 sequence (Q9BY41 1-377): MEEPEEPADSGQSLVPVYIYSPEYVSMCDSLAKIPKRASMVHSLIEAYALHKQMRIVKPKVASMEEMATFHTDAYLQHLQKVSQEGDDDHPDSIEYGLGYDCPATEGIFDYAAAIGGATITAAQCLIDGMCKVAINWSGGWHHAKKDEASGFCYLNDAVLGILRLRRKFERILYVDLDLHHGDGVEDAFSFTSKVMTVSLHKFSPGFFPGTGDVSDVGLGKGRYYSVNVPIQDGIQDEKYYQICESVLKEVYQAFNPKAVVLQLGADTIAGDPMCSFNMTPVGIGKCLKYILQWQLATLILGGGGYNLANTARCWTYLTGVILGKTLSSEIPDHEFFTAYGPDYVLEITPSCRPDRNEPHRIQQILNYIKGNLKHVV
# [15] = test system: chronic myelogenous leukemia K562 cells; assay: Cytotoxicity assay; assay type: cell-based, human
# [16] = test system: STAT5b (total and pY694); assay: Western blot, STAT5 signaling in MV4–11 cells; assay type: cell-based, human; conditions: at 10 μM
# [17] = target: T4, HDAC10 (Homo sapiens, UniProt Q969S8); assay: HDAC inhibition, EMSA at fixed concentration; assay type: biochemical
# T4 sequence (Q969S8 1-669): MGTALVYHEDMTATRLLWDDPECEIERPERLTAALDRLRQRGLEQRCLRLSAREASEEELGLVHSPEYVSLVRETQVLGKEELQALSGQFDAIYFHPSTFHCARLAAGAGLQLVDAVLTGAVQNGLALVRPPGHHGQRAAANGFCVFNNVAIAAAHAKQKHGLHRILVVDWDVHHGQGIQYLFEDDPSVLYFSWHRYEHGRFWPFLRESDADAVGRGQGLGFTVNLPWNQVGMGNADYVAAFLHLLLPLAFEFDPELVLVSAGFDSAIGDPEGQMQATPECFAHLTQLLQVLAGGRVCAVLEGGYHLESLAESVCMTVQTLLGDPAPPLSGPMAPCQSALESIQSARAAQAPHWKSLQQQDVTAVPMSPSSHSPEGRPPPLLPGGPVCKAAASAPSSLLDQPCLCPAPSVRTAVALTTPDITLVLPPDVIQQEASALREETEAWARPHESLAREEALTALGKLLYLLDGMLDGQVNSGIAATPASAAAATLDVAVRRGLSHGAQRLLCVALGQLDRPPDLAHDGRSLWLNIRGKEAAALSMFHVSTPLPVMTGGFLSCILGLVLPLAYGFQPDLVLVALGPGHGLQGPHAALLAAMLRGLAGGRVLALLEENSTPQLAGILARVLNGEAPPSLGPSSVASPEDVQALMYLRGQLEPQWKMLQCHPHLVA
# [18] = test system: MOLM-13 acute myeloid leukemia (AML) cells; assay: Cytotoxicity assay; assay type: cell-based, human; conditions: MOLM-13 AML cells
# [19] = Mouse plasma protein binding assay; assay type: in vitro ADME; conditions: both, CD-1, mouse
# [20] = test system: D458 recurrent MDB cells; assay: Cytotoxicity assay in medulloblastoma cells; assay type: cell-based, human
# [21] = Glutathione stability assay using HPLC; assay type: physicochemical; conditions: 100-fold excess reduced L-glutathione, HEPES buffer pH 7.4, after 25 h
# [22] = Single-dose pharmacokinetics in NSG mice; assay type: in vivo, mouse
# [23] = Serum concentration after 5 days daily dosing in NSG mice; assay type: in vivo, mouse; conditions: for concentration at 5 h: NSG, mouse, serum, intraperitoneal
# [24] = target: HDAC1 (Homo sapiens, UniProt Q13547); assay: HDAC inhibition, EMSA at fixed concentration; assay type: biochemical
# [25] = target: HDAC3 (Homo sapiens, UniProt O15379); assay: HDAC inhibition, electrophoretic mobility shift assay; assay type: biochemical; conditions: EMSA, n = 2
# Chain of HDAC3 (O15379 whole entry): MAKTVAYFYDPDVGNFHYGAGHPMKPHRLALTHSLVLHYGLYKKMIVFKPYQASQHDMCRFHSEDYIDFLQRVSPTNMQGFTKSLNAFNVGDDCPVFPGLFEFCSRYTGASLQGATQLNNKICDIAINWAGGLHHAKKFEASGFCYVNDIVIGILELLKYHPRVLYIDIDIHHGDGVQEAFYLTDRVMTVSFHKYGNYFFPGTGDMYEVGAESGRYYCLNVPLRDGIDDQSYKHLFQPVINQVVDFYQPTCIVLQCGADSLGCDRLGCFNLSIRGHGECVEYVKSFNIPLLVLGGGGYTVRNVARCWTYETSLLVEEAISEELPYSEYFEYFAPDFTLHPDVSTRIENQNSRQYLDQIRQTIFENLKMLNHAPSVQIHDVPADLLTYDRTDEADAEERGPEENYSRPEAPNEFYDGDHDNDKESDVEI
# Chain of HDAC3 (Q9Y618 395-489 partner limits assumed): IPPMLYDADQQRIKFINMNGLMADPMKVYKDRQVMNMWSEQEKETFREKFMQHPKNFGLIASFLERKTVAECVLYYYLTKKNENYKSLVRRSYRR
# Chain of HDAC1 (Q13547 whole entry): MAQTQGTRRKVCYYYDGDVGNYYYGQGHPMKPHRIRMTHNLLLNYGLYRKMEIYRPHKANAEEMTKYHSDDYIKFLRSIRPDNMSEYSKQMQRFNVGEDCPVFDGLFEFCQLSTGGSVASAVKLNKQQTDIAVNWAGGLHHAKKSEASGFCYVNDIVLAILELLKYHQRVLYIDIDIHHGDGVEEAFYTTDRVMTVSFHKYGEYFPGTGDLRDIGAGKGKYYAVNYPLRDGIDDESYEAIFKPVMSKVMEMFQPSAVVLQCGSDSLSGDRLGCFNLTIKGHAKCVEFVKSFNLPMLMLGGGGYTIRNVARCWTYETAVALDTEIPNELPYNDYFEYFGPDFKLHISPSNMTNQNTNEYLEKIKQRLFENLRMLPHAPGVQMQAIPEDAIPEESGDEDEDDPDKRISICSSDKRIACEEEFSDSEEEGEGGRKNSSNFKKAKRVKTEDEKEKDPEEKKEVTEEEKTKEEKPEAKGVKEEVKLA
# Chain of HDAC4 (P56524 whole entry): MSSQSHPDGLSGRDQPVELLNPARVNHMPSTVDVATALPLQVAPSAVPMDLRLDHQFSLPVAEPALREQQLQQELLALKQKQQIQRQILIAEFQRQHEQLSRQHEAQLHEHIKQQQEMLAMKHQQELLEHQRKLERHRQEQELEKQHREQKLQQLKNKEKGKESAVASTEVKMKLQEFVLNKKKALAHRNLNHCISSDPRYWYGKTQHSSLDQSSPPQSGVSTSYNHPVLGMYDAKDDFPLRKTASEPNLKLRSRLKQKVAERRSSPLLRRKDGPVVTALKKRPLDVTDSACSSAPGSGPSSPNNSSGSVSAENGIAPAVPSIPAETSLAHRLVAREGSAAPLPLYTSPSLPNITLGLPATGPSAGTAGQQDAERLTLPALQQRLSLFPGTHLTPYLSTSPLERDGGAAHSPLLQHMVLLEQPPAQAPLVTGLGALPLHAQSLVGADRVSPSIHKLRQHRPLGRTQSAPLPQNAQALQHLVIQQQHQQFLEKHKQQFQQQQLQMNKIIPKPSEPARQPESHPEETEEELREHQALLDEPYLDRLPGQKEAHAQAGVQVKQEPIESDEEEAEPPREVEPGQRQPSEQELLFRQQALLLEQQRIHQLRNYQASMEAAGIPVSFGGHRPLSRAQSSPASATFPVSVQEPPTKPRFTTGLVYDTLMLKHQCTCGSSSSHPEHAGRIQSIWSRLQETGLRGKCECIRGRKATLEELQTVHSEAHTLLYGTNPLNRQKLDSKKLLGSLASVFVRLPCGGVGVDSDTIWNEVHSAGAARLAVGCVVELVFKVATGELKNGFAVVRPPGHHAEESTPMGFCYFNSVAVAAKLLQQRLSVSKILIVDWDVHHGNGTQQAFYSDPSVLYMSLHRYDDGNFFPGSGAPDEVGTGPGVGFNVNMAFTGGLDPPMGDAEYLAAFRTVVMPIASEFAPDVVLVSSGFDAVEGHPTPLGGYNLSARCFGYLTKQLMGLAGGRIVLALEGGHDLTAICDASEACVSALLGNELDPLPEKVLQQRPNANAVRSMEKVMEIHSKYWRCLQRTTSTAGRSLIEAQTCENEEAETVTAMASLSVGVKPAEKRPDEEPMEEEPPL
smiles,measurement,setting,value
"CC(C)(C)c1ccc(CN(C(=O)CN(Cc2c(F)c(F)c(F)c(F)c2F)S(=O)(=O)c2ccc(F)cc2)c2ccc(C(=O)NO)cc2)cc1 [AES-135, 4-(N-(4-(tert-Butyl)benzyl)-2-((4-fluoro-N-((perfluorophenyl)-methyl)phenyl)sulfonamido)acetamido)-N-hydroxybenzamide]",Papp A→B at 5 µM,[1],0.27 ×10⁻⁶ cm/s
same,efflux ratio at 5 µM,[1],3.83
same,cytotoxic potency,[2],low μM potency
same,effect on total STAT3 and pY705 STAT3 (Western blot),[3],neither total STAT3 nor pY705 STAT3 was significantly reduced
same,survival advantage,[4],no obvious survival advantage
same,cytotoxic potency,[5],nM activity
same,inhibition at 10 µM,"[6]; read-out: % inhibition HDAC4, at 10 μM, n = 2",< 20%
same,inhibition at 10 µM,"[7]; read-out: % inhibition HDAC6, at 10 μM",> 90%
same,cytotoxic potency,[8],low μM potency
same,toxicity in noncancerous cells,[9],minimal toxicity
same,IC50,[10],1880 ± 890 nM
same,inhibition at 10 µM,"[11]; read-out: % inhibition HDAC11, at 10 μM",> 90%
same,stability to glutathione (19F NMR),[12],no displacement of fluoride was observed
same,toxicity assessed via weight loss,"[13]; 60 mg/kg IP daily for 4–5 days, n = 6",no significant weight loss
same,toxicity based on percentage weight loss compared to vehicle control,[13]; 10 and 40 mg/kg IP once a day for 5 days,No visible toxicity
same,IC50,[14],1100 nM
same,inhibition at 10 µM,"[14]; read-out: % inhibition HDAC8, at 10 μM, EMSA, n = 2",> 90%
same,sensitivity to cytotoxicity,[15],resistant
same,effect on total STAT5b and pY694 STAT5b (Western blot),[16],failed to suppress total STAT5b or pY694 STAT5b
same,inhibition at 10 µM,"[17]; read-out: % inhibition HDAC10, at 10 μM, n = 2",≥ 70%
same,cytotoxic potency,[18],low μM potency
same,recovery at 6 h,[19]; mouse plasma,16 to 20%
same,fraction unbound at 6 h,[19]; plasma,0.004
same,cytotoxic potency,[20],nM activity
same,stability to glutathione (HPLC),[21],No discernible reaction was observed
same,duration of micromolar (μM) concentrations,[22]; IP injection,> 10 h
same,clearance rate,"[22]; single 20 mg/kg IP, assuming bioavailability to be 100%",0.004 L/h
same,increase in blood concentration from quadrupling the dose,[23]; 40 vs 10 mg/kg,~5.7 fold
same,concentration at 5 h,[23]; 10 mg/kg,323 ng/mL
same,concentration at 5 h,[23]; 40 mg/kg,1830 ng/mL
same,inhibition at 10 µM,"[24]; read-out: % inhibition HDAC1, at 10 μM, n = 2",≥ 70%
same,inhibition at 10 µM,"[25]; read-out: % inhibition HDAC3, at 10 μM",> 90%
"CN(O)C(=O)c1ccc(N(Cc2ccc(C(C)(C)C)cc2)C(=O)CN(Cc2c(F)c(F)c(F)c(F)c2F)S(=O)(=O)c2ccc(F)cc2)cc1 [compound 60, 4-(N-(4-(tert-Butyl)benzyl)-2-((4-fluoro-N-((perfluorophenyl)-methyl)phenyl)sulfonamido)acetamido)-N-hydroxy-N-methylbenzamide]",% inhibition HDAC4,"[6]; at 10 μM, n = 2",0%
same,% inhibition HDAC6,[7]; at 10 μM,12%
same,% inhibition HDAC11,[11]; at 10 μM,64%
same,% inhibition HDAC8,"[14]; at 10 μM, EMSA, n = 2",0%
same,% inhibition HDAC10,"[17]; at 10 μM, n = 2",0%
same,% inhibition HDAC1,"[24]; at 10 μM, n = 2",0%
same,% inhibition HDAC3,[25]; at 10 μM,0%

# Source: publication PMC7190078 (Journal of medicinal chemistry, 2019)
